We go through 7 molecules from article PMC9088062 (2018).

In experiment [1] the test system is Tcy2 (DNA, G4) GGTTGGTTGGTTGGTTTT
The experiment in a line: FAM fluorescence quenching. The note with it: 10 mM Tris-acetate pH 8.0, room temperature, 25 nM DNA.

For experiment [2] the test system is unchanged. In words: circular dichroism. To be noted: 10 mM MOPS pH 7.0, room temperature, 5 min; 1 μM DNA, 1 ppm cyromazine. In general terms: Circular dichroism is widely used to follow secondary structure.
Experiment [3] has as its system Random DNA (DNA, single strand) ATCGACATGTAGCCGATGGC
In words: FAM fluorescence quenching. The note with it: 10 mM Tris-acetate pH 8.0, room temperature; 25 nM DNA; highest tested 100 ppb.

Setting [4] is: tested at 50 ppb, no fluorescence change.

Take `CN(C)[C@@H]1C(=O)C(C(N)=O)=C(O)[C@@]2(O)C(=O)C3=C(O)c4c(O)cccc4[C@@](C)(O)[C@H]3[C@H](O)[C@@H]12`: in experiment [1] (setting [4]), the binding entry is reported as “no”.

As for `CS(=O)(=O)c1ccc([C@@H](O)[C@@H](CO)NC(=O)C(Cl)Cl)cc1`, in experiment [1] (setting [4]), the binding entry is recorded as “no”.

Consider `Cc1ccc(N=CN(C)C=Nc2ccc(C)cc2C)c(C)c1`, for which the binding result in experiment [1] (setting [4]) is given as “no”.

In the case of `Cc1nc(C)c(Cl)c(O)c1Cl`, the binding entry in experiment [1] (setting [4]) is on record as “no”.

Turning to `Nc1nc(N)nc(NC2CC2)n1`, the binding entry in experiment [1] (2 min, static quenching) is reported as “yes”; in experiment [2], “yes”; in experiment [3], “no”.

With `O=C(N[C@H](CO)[C@H](O)c1ccc([N+](=O)[O-])cc1)C(Cl)Cl`, the binding entry in experiment [1] (setting [4]) was “no”.

Consider `c1ccc([C@H]2CN3CCSC3=N2)cc1`, for which the binding entry in experiment [1] (setting [4]) is on record as “no”.
